Experimental data: article PMC8247115 (Cell, 2020)

Key:
CB2 [1] = target: T1, CB2 (Homo sapiens, UniProt P34972); settings: read-out: Ki CB2; partial agonist on CB2; ref Dhopeshwarkar et al., 2017; cited from earlier work
CB1 = settings: read-out: Ki CB1; antagonist on CB1; ref Dhopeshwarkar et al., 2017; cited from earlier work
CB2 [2] = target: T1, CB2; assay: cell-based; format: cell-based; settings: for functional behaviour at CB2: cAMP functional assay

T1 sequence (P34972 whole entry): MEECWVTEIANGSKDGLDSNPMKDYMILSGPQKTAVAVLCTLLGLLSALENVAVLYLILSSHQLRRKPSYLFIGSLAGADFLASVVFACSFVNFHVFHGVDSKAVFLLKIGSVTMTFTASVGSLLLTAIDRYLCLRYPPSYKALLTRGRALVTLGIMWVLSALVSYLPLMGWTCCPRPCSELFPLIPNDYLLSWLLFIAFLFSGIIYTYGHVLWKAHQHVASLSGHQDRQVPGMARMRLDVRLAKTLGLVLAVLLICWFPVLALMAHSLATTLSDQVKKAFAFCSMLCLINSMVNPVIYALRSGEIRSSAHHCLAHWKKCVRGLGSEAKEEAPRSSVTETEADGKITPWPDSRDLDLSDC

| SMILES | Ki (CB2 [1]) [µM] | Ki (CB1) [µM] | EC50 (CB2 [2]) [µM] | functional behaviour at CB2 (CB2 [2]) |
| --- | --- | --- | --- | --- |
| COc1ccc2c(c1)c(CCN1CCOCC1)c(C)n2C(=O)c1cccc(Cl)c1Cl [GW-405,833] | 0.00392 ± 0.00158 | 4.77 ± 1.68 |  |  |
| CCN(CC)c1ccc(CN(Cc2cc(OC)c(OC)c(OC)c2)S(=O)(=O)/C=C/c2ccccc2)cc1 [XIE55, (E)-N-(4-(diethylamino)benzyl)-2-phenyl-N-(3,4,5-trimethoxybenzyl)ethene-1-sulfonamide] |  |  | 1.5 ± 0.4 | inverse agonist |
| CCN(CC)c1ccc(CN(Cc2cc(OC)c(OC)c(OC)c2)S(=O)(=O)c2cccs2)cc1 [XIE57, N-(4-(diethylamino)benzyl)-N-(3,4,5-trimethoxybenzyl)thiophene-2-sulfonamide] |  |  | 6.9 ± 2.9 | partial agonist |
